Experimental findings from patent US6197822A, “Neuropeptide antagonists” (Pfizer Inc., priority 2000, dated 2001) are described below.

The assay deals with T1, recombinant human NPY 5 receptors (Homo sapiens, UniProt Q15761).
T1 construct: made in house; host or cells: Sf9 insect cells, baculovirus-infected (membranes)
T1 sequence (Q15761 1-445): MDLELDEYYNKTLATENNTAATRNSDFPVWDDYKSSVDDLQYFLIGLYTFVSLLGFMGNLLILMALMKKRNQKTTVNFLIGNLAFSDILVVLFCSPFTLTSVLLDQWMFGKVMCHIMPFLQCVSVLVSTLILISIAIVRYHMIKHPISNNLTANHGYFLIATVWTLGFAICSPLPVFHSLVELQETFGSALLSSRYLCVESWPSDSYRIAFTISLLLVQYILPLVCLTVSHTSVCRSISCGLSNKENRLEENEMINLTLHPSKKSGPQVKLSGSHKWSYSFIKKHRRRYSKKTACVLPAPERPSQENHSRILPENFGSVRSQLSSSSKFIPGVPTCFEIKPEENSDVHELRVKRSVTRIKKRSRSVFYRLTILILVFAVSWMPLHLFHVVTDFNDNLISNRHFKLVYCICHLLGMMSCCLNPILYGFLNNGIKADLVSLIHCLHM
Put plainly: [125I]PYY binding at human NPY5 receptors expressed in Sf9 cells. The following applies: [125I]PYY(porcine) displacement, membranes of baculovirus-infected Sf9 cells; read-out: Ki (binding constants in the NPY5). Here is the method: [^125 I]PYY Binding at Human NPY Receptors Expressed in Sf9 Cells
Baculovirus-infected Sf9 cells expressing recombinant human NPY 5 receptors are harvested at 48 hours. At the time of harvest, cell pellets are resuspended in lysis buffer (20 mM Tris-HCl, pH 7.4, 5 mM EDTA, 0.5 μg/ml leupeptin, 2 μg/ml Aprotonin and […]) and homogenized using a Polytron (setting 3, 25-30 seconds). Homogenates are centrifuged at 4° C. for 5 minutes at 200 x g ([…]) to pellet the nuclei. The supernatant is collected into a fresh tube and centrifuged at 48,000 x g for 10 minutes. Pellets are washed once in lysis buffer and centrifuged. The final pellet is resuspended in PBS and stored in aliquots at -80° C. Purified membranes are washed using PBS and resuspended in binding buffer (50 mM Tris(HCl), pH 7.4, 5 mM KCl, 120 mM NaCl, 2 mM CaCl2, 1 mM MgCl2, 0.1% bovine serum albumin (BSA)). Membranes (20 μg/reaction tube) are added to polypropylene tubes containing 0.035 nM [^125 I]PYY(porcine), displacers ranging from 10^-12 M to 10^-5 M, and buffer to yield a final volume of 0.5 mL. Nonspecific binding is determined in the presence of 1 μM NPY(human) and accounts for 10% of total binding. Following a 2 hour incubation at room temperature, the reaction is terminated by rapid vacuum filtration. […] IC50 values were calculated with the non-linear curve fitting program RS/1 (SigmaPlot, Jandel).

pKi: −log10 of the molar value.

Regarding `CCN(CC)c1ccc(NC(=O)C(c2ccccc2)c2ccccc2)cc1` [--N(C2 H5)2], the negative-log Ki (pKi) is 8.10.
The value for `Cc1ccc(NC(=O)C(c2ccccc2)c2ccccc2)cc1` [--CH3] was 6.10.
